Test results from patent publication US20100022584A1, “Modulation of Glutamine Synthetase Activity” (priority 2006, published 2010).
Changes are numbered by the printed parent chain. Entries after “also recorded” stand apart in the source; their conditions may differ.

Assays:
Test in all cases: HPLC forward-reaction glutamine synthetase assay with serine protease inhibitors
Format in all cases: biochemical, E. coli
[1] = target: T1, glutamine synthetase mutant S52A S53A (Escherichia coli, UniProt P0A9C5, S53A/S54A); details: 1 mM inhibitor; for % Reduction in ADP-based Specific Activity / % Reduction in Glutamine-based Specific Activity / % Conversion: S52A S53A; for % Reduction in ADP-based Specific Activity / % Reduction in Glutamine-based Specific Activity: 60 min pre-incubation, vs no-inhibitor control, positive = activity increased; for % Conversion: glutamine-based divided by ADP-based specific activity
T1 construct: made in house; host or cells: E. coli YMC11 (glutamine synthetase auxotroph), pBluescript II SK+
T1 sequence (P0A9C5 2-469 S53A/S54A limits assumed): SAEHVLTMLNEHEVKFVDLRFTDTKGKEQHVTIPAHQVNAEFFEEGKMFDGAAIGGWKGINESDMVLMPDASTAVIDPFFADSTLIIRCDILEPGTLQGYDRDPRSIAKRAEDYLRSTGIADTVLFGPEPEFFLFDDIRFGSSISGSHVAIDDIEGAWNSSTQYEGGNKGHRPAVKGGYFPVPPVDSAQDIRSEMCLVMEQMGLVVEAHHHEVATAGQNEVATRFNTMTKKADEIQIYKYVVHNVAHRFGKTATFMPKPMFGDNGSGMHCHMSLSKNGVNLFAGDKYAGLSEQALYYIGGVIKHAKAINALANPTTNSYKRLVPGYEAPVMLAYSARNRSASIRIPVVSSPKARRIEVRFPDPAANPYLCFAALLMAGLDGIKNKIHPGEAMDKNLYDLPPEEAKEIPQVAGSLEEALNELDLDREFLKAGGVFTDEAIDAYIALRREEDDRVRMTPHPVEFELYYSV
Description: (§1) This assay was set up to measure glutamine synthetase activity according to the forward reaction, and measures the amount of glutamine formed from […] of L-glutamate in the presence of MnCO3-ATP (the basis of one reaction) and MgATP (the basis of a second reaction). In addition, the amount of ADP formed is also measured in a separate assay, using the same reagents.
(§2) All enzyme preparations were adjusted to the same concentration of protein, and added to the assay mixture in a volume of 50 μl. The addition of the enzyme started the reaction, which was then allowed to proceed for 1 hour. The reaction was stopped by the addition of 6 μl of a 50% solution of trichloroacetic acid. Each assay was then aliquoted into 4 HPLC vials (150 μl per vial), two of which were assayed for glutamate and glutamine using a Phenomenex Luna 5 μC18 Column on an Agilent 100 HPLC instrument. The ATP/ADP assays were run on a Chromolith Performance RP-18c column also using an Agilent 100 HPLC instrument.
(§3) As it is believed that two putative catalytic triads, similar to those in the serine proteases, are involved in the reaction mechanism of glutamine synthetase, certain of the mutants were also assayed by HPLC in the presence of the serine protease inhibitors, AEBSF and PMSF, in order to assess the effect that these inhibitors had on the enzyme. The enzymes assessed were the adenylylated WT enzyme, the deadenylylated WT enzyme, and the mutant enzymes S52A, S52A Y397V, S53A, S53A Y397V, S52A S53A and S52A S53A Y397V. The enzymes were pre-incubated for 60 minutes in the presence of 1 mM PMSF or 1 mM AEBSF. A control reaction was set up for each enzyme, which contained no inhibitor. Each enzyme was then added to assays set up as described above. The assay was allowed to proceed for 60 minutes, then stopped by the addition of […] of 50% TCA, after which they were analysed by HPLC. All assays were run in triplicate.
(§4) In addition to the γ-glutamyl transferase assays, assays were also developed to measure the rate of conversion of ATP and glutamate to ADP and glutamine by HPLC. These were set up as single assays but analysed separately for glutamate and glutamine and ATP and ADP. The conversion rates for glutamate to glutamine, in both the presence of Mn^2+ and Mg^2+ by glutamine synthetase, is referred to as the […] specific activity and is presented in μmoles/min/mg protein. The conversion rates for ATP to ADP, in both the presence of Mn^2+ and Mg^2+ by glutamine synthetase, is referred to as the ADP-based specific activity and is presented in μmoles/min/mg protein. The percentage of conversion was also calculated by dividing the glutamine-based specific activity by the ADP-based specific activity, and this value is interpreted as the ability of the enzyme to complete both steps of the reaction, i.e., glutamate to glutamine and ATP to ADP, at an equivalent level of efficiency.

[2] = target: T2, glutamine synthetase mutant S52A S53A Y397V (Escherichia coli, UniProt P0A9C5, S53A/S54A/Y398V); details: 1 mM inhibitor; for inhibition of the enzyme (in words): HPLC assays; for % Reduction in ADP-based Specific Activity / % Reduction in Glutamine-based Specific Activity / % Conversion: Mn assay; for % Reduction in ADP-based Specific Activity / % Reduction in Glutamine-based Specific Activity: 60 min pre-incubation, vs no-inhibitor control; for % Reduction in Glutamine-based Specific Activity: positive = activity increased; for % Conversion: glutamine-based divided by ADP-based specific activity
T2 construct: made in house; host or cells: E. coli YMC11 (glutamine synthetase auxotroph), pBluescript II SK+
T2 sequence (P0A9C5 2-469 S53A/S54A/Y398V limits assumed): T1 sequence (P0A9C5 2-469 S53A/S54A limits assumed) with Y397V
Description: as §1, §2, §3, §4

[3] = target: T3, glutamine synthetase mutant Y397V (Escherichia coli, UniProt P0A9C5, Y398V); details: 1 mM inhibitor; for inhibition of the enzyme (in words): HPLC assays; for % Conversion: glutamine-based divided by ADP-based specific activity
T3 construct: made in house; host or cells: E. coli YMC11 (glutamine synthetase auxotroph), pBluescript II SK+
T3 sequence (P0A9C5 2-469 Y398V limits assumed): T1 sequence (P0A9C5 2-469 S53A/S54A limits assumed) with A52S, A53S, Y397V

SMILES | % Reduction in ADP-based Specific Activity ([1]; Mg assay) [%] | % Reduction in Glutamine-based Specific Activity ([1]; Mg assay) [%] | % Conversion ([1]; Mg assay) [%] | % Reduction in ADP-based Specific Activity ([1]; Mn assay) [%] | % Reduction in Glutamine-based Specific Activity ([1]; Mn assay) [%] | % Conversion ([1]; Mn assay) [%] | inhibition of the enzyme (in words) ([1]; S52A S53A (double serine mutant), HPLC assays) | inhibition of the enzyme (in words) [2] | % Reduction in ADP-based Specific Activity [2] [%] | % Reduction in Glutamine-based Specific Activity [2] [%] | % Conversion [2] [%] | inhibition of the enzyme (in words) [3] | % Conversion ([3]; Mg assay) [%] | % Conversion ([3]; Mn assay) [%]
O=S(=O)(F)Cc1ccccc1 [PMSF] | −23.74 | −23.24 | 82 | −13.56 | −16.92 | 85 | did not significantly inhibit; also recorded: not significantly inhibited | did not significantly inhibit | −4.83 | −18.20 | 62 | found to inhibit | 78 | 61
NCCc1ccc(S(=O)(=O)F)cc1 [AEBSF] | −41.91 | −17.82 | 115 | −16.20 | −7.69 | 98 | – | appeared to cause inhibition | −5.20 | −1.65 | 75 | appeared to cause inhibition | 107 | 108
